# Test system: Lewis lung carcinoma (LLC) cells
# Test: inhibition of in vivo growth of Lewis lung carcinoma
# Design: species or system BDF1 mice
# Conditions: 2000 μg, intraperitoneal, 20 doses; day 21
# Experimental: The inhibition of cancer cell growth in vivo system was examined in BDF1 mice using Lewis lung carcinoma (LLC) cells. The concentration of LLC cells used was such that each mouse was injected with one million carcinoma cells via subcutaneous injection to induce a cancer. One hundred microliter of TMP liposome (TMP 100 μg) was injected intraperitoneally and intravenously, respectively, 1 day, 3 days, 6 days and 9 days after the injection of the above LLC cells. As a positive control, AG3340 (Agouron Pharmaceuticals Co., Ltd., USA), known as an MMP-2 (matrix metaloproteinasse-2) inhibitor, was suspended in 0.2% tween/0.5% carboxymethyl cellulose and 2 mg of the resulting suspension was intraperitoneally injected daily. […]
# TMP.I liposomes (DPPC/Chol/TMP.I=5:5:1 mole ratio) having an anti-metastatic activity, was administered to BDF1 inoculated with Lewis Lung Carcinoma (LLC) cells and their inhibitory effect on the tumor growth was observed. […] The same administration was repeated after 3 days, 6 days and 9 days of the subcutaneous injection of the LLC cancer cells and 21 days after the injection each mouse was killed by dislocation of the cervical vertebra, and the volume of cancer was measured by the following equation and the results are shown in the following table 5. […]
smiles,measurement,value
CC1(C)SCCN(S(=O)(=O)c2ccc(Oc3ccncc3)cc2)[C@H]1C(=O)NO [AG3340],Volume of Cancer,1100 ± 250 mm^3

# Source: patent US6538032B1, “Phytosphingosine derivatives with antitumor activity” (Charmzone Co., Ltd., priority 2001, dated 2003)
